# In ChEMBL document CHEMBL3392952, “Structure guided lead generation for M. tuberculosis thymidylate kinase (Mtb TMK): discovery of 3-cyanopyridone and 1,6-naphthyridin-2-one as potent inhibitors” (J Med Chem, 2015):
# Active and inactive are the calls of the source. No cut-off for these calls is given here.
# Key:
# Thymidylate kinase = molecular target: T1, Thymidylate kinase (Mycobacterium tuberculosis, UniProt P9WKE1); test: Inhibition of Mycobacterium tuberculosis thymidylate kinase activity by pyruvate kinase-lactate dehydrogenase coupled assay
# T1 sequence (P9WKE1 whole entry): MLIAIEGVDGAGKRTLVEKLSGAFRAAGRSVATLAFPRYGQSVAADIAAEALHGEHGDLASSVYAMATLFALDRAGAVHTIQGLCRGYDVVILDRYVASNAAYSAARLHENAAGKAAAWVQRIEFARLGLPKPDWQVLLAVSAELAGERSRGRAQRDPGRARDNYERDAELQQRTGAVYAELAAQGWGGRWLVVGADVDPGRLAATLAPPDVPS
# [1] = molecular target: T2, Thymidylate kinase (Homo sapiens) (UniProt P23919); test: Inhibition of human thymidylate kinase assessed as […] up to 200 uM
# T2 sequence (whole entry): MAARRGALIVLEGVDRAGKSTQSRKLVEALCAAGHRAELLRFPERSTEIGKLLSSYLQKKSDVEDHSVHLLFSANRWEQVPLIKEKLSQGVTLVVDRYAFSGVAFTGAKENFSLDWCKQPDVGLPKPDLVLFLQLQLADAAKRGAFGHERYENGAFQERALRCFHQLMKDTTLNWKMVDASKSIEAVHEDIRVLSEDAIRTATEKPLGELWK
# [2] = tested on: Mycobacterium tuberculosis; test: Antitubercular activity against Mycobacterium tuberculosis assessed as growth inhibition […] by standard microdilution method; assay type: functional
# [3] = Dissociation constant, pKa of the compound; assay type: physicochemical
# Escherichia coli = test: Inhibition of Escherichia coli thymidylate kinase
# Haemophilus influenzae = test: Inhibition of Haemophilus influenza thymidylate kinase
# Staphylococcus aureus = test: Inhibition of Staphylococcus aureus thymidylate kinase
Compound,IC50 (Thymidylate kinase) [µM],MIC [2] [µg/mL],also measured
COc1cccc(-c2cc(SC)c(C#N)c(=O)[nH]2)c1,1.5,,Activity [1]: inactive
CSc1cc(-c2cccc(Cl)c2)[nH]c(=O)c1C#N,1.9,,
CS(=O)(=O)c1cc(-c2cccc(Br)c2)[nH]c(=O)c1,> 25,> 32,
CSc1cc(-c2ccccn2)[nH]c(=O)c1C#N,18,,
CS(=O)(=O)c1c2c([nH]c(=O)c1C#N)-c1ccccc1OC2,30,32,
COc1cccc2c1CCc1c-2[nH]c(=O)c(C#N)c1-c1ccc(C(=O)O)cc1,0.005,> 32,pKa [3]: 4.4
C[S+]([O-])c1cc(-c2cccs2)[nH]c(=O)c1C#N (stereo not given),0.82,12,
C[S+]([O-])c1cc(-c2cccc(Br)c2)[nH]c(=O)c1C#N (stereo not given),0.14,4,Activity (Escherichia coli): inactive; Activity (Haemophilus influenzae): inactive; Activity (Staphylococcus aureus): inactive
CCNC(=O)Nc1ccc(-c2c3c([nH]c(=O)c2C#N)-c2cccc(OC)c2CC3)cc1,0.017,> 32,
COc1cccc(-c2cc(-c3ccc(C(=O)O)cc3)c(C#N)c(=O)[nH]2)c1,0.42,,
Cc1nccc2nc(O)c(C#N)cc12,634,,
COc1cccc(-c2cc(-c3cccc(N)c3)c(C#N)c(=O)[nH]2)c1,1.2,,
CCc1cc2[nH]c(=O)c(C)c(C)c2c(CC)n1,133,,
COc1cccc(-c2cc(-c3ccc(NC(C)=O)cc3)c(C#N)c(=O)[nH]2)c1,0.43,,
CCCc1cc2[nH]c(=O)ccc2c(C)n1,590,,
CC(C)c1ccc(COc2cccc(-c3cc(-c4ccc(C(=O)O)cc4)c(C#N)c(=O)[nH]3)c2)cc1,0.006,,
CCCc1cc2[nH]c(=O)c(C#N)c(-c3ccc(NS(C)(=O)=O)cc3)c2c(C)n1,2.1,> 32,
N#Cc1c(-c2ccc(C(=O)NS(=O)(=O)c3ccccc3)cc2)c2c([nH]c1=O)-c1ccccc1OC2,0.002,> 32,pKa [3]: 5
CSc1cc(-c2ccccc2)nc(O)c1C#N,1.9,,
CC(C)c1ccc(COc2cccc(-c3cc([S+](C)[O-])c(C#N)c(=O)[nH]3)c2)cc1 (stereo not given),0.032,2,
CCNC(=O)Nc1ccc(-c2cc(-c3cccc(OC)c3)[nH]c(=O)c2C#N)cc1,0.25,,Activity [1]: inactive
C[S+]([O-])c1cc(-c2cccc(OC(F)(F)F)c2)[nH]c(=O)c1C#N (stereo not given),0.24,8,Activity (Escherichia coli): inactive; Activity (Haemophilus influenzae): inactive; Activity [1]: inactive; Activity (Staphylococcus aureus): inactive

Compound,IC50 (Thymidylate kinase) [µM],MIC [2] [µg/mL],also measured
CC(C)c1ccc(COc2cccc3c2CCc2c-3[nH]c(=O)c(C#N)c2-c2ccc(C(=O)O)cc2)cc1,0.001,> 32,pKa [3]: 4.4
CSc1cc(-c2cccc(Cl)c2)[nH]c(=O)c1C(N)=O,14.3,,
CSc1cc(-c2cccs2)[nH]c(=O)c1C#N,3.6,,
N#Cc1c(-c2ccc(C(=O)O)cc2)c2c([nH]c1=O)-c1ccccc1CC2,0.006,,
CS(=O)(=O)c1cc(-c2cccc(OCc3cccc(Cl)c3)c2)[nH]c(=O)c1C#N,0.022,4,
COc1cccc(-c2nc(SC)c(C#N)c(=O)[nH]2)c1,8,,
CC(C)CCOc1cccc(-c2cc([S+](C)[O-])c(C#N)c(=O)[nH]2)c1 (stereo not given),0.33,4,
COc1cccc(-c2cc(-c3ccc(C(=O)O)cc3)c(C)c(=O)[nH]2)c1,1.2,,
CCc1cc2[nH]c(=O)c(C#N)c(-c3ccc(NS(C)(=O)=O)cc3)c2c(C)n1,0.2,> 32,
COc1ccccc1-c1cc(SC)c(C#N)c(=O)[nH]1,> 50,,
N#Cc1c(-c2ccc(C(=O)O)cc2)c2c([nH]c1=O)-c1cccc(O)c1CC2,0.003,> 32,Activity [1]: inactive; pKa [3]: 4.4
CCCc1cc2[nH]c(=O)c(C#N)c(-c3ccccc3)c2c(C)n1,1,> 32,
N#Cc1c(-c2ccc(C(=O)O)cc2)c2c([nH]c1=O)-c1cccc(-c3cn[nH]c3)c1CC2,0.002,> 32,pKa [3]: 4.4
CCc1cc2[nH]c(=O)c(C#N)c(-c3ccccc3)c2c(C)n1,0.35,> 32,
COc1cccc(-c2cc(-c3cccnc3)c(C#N)c(=O)[nH]2)c1,2.63,,
COc1cccc(-c2cc(-c3ccc(N)cc3)c(C#N)c(=O)[nH]2)c1,1.01,,
CS(=O)(=O)c1cc(-c2cccc(Br)c2)[nH]c(=O)c1C#N,0.1,8,
CSc1cc(-c2cccs2)oc(=O)c1C#N,> 50,,
COc1cccc(-c2cc(-c3cccc(C(=O)O)c3)c(C#N)c(=O)[nH]2)c1,2.73,,
CS(=O)(=O)NC(=O)c1ccc(-c2c3c([nH]c(=O)c2C#N)-c2ccccc2OC3)cc1,0.005,> 32,Activity [1]: inactive; pKa [3]: 3.9
COc1ccc(-c2cc(SC)c(C#N)c(=O)[nH]2)cc1,7.7,,
